# Measured values reported in patent US20260284138A1, “METHODS OF MODULATING THE EPITHELIAL-MESENCHYMAL TRANSITION” (RS Oncology, LLC, priority 2023, published 2026).
# Legend:
# [1] = test system: PRX3; assay: PRX3 crosslinking by reducing SDS-PAGE and western blot; format: cell-based, human
# Excerpt: PRX3 is the primary mitochondrial peroxidase required for H2O2 clearance from the mitochondria induced by metabolic, tumorigenic, and drug treatment inputs. During the metabolism of H2O2, PRX3 forms an intramolecular disulfide bond that orients the second active site for TS-dependent covalent crosslinking, inactivating the protein leading to increased oxidative stress and tumor cell death.
# (§1) Erastin potentiates PRX3 crosslinking and ROS generation by TS. FIG. 10A show Western blot from HM cells treated with TS (1 μM), erastin (ER, 2.5 μM) or TS+ER for 24 hours. Samples were run under reducing conditions by SDS-PAGE. FIG. 10B show quantification of PRX3 dimer (TS-crosslink) to PRX3 monomer (unmodified PRX3) from protein western blots as in A (n=2 biological replicates). FIG. 10C show ROS levels in cells treated with TS, ER, or TS+ER for 24 hours (n=2 biological replicates, 3 technical replicates). FIG. 10D show protein western blot of cells cultured in media+/−cystine and treated with TS or ER. PRX3 crosslinking by TS is increased in cells cultured in cystine free (−) media.
# [2] = test system: HM cells; assay: Cell viability assay of HM cells; format: cell-based, human
# Experimental: (§2) FIG. 8A show BAP1 protein expression in immortalized mesothelial (LP9), pleural Meso (HM, MI), and peritoneal Meso (Pet-Gar) cell lines. […] FIG. 8B show EC50 values for TS in normal and MM cell lines (*p<0.05, **p<0.01, ***p<0.001, ****p <0.0001, n=4 biological replicates) FIG. 8C show protein western blots of BAP1 and GAPDH in HM scramble control (SCR) and BAP1 siRNA expressing (siBAP1) cells. FIG. 8D show cell viability curves of cells treated with TS 48 hours (n=3).
# ZSS>10 indicates synergy between the two compounds.
# TS synergy with ER is independent of ferrostatin sensitive MOA.
# Knockdown of SLC7A11 potentiates TS activity. […] PRX3 crosslinking is increased in the SLC7A11 KD samples.
# [3] = test system: HM-TSR cells; assay: Cell viability assay of TS-resistant HM-TSR cells; format: cell-based, human; settings: TS+ER 48 hours
# Experimental: TS-resistant cells over-express SLC7A11 and are re-sensitized to TS by Erastin (ER). HM cells were dosed with TS by repetitive drug treatment with a short 24-48 hr recovery period. […] Development of a drug-tolerant cell line with tolerance at […] after 8 months. […] The shift in sensitivity of the HM-TSR-TS line to the HM-TSR-TS/ER line.
# [4] = test system: HM cells; assay: ROS levels in treated cells; format: cell-based, human; settings: ER or TS+ER, 24 hours
# Experimental: as §1
# [5] = test system: cytokine levels in pleural effusion; assay: Phase 1/2 clinical trial: cytokine levels in pleural effusion by ELISA; format: in vivo, human; settings: pleural effusion pre- and post-treatment, weekly intrapleural administration
# Excerpt: FIGS. 7A-7B show administration of RSO-021 and effect on cytokine levels. […] Prior to each dose patients will have pleural effusion drained to dryness per standard of care. After each administration, the IPC is secured until next RSO-021 dosing time point. […] Absolute values as determined following ELISA are shown from 7 patients enrolled on the trial.
# RSO-021 is a PRX3 inhibitor that was investigated in a first-in-human phase ½ clinical trial, recruiting patients with malignant pleural effusion (MPE) arising from mesothelioma or other solid tumors. Mesothelioma cells rely on buffering of mitochondrial oxidative stress through the expression and activity of mitochondrial PRX3, which is covalently inactivated by RSO-021. Inactivation of PRX3 by RSO-021 leads to increased oxidative stress and tumor cell death. RSO-021 may be administered weekly via an intrapleural catheter. Cytokine levels in pleural effusion drainages were measured by ELISA assays. Tumor explants were grown following surgical resection of mesothelioma tumors. RNA sequencing of MM cell lines was conducted. […] RNA sequencing of cells derived from pre-and post-treated MPE aims to identify RSO-021 induced transcriptional changes and their association with clinical activity. […]
# [6] = test system: patient derived explants (PDEs); assay: Gene set enrichment analysis of patient derived explants treated with TS; format: cell-based, human; settings: PDEs treated with 10 μM of TS vs untreated
# Excerpt: Mesothelioma, a lethal cancer associated with asbestos exposure, lacks effective drug therapy particularly in the relapsed treatment setting. Epithelial-to-mesenchymal transition (EMT) confers an aggressive sarcomatoid phenotype capable of invasion, metastasis, and drug resistance. Pharmacological targeting of EMT could favorably alter the progression and treatment of mesothelioma. Mesothelioma cells rely on buffering of mitochondrial oxidative stress through the expression and activity of mitochondrial peroxiredoxin 3 (PRX3), which is covalently inactivated by the inhibitor RSO-021 (Thiostrepton, TS). To better understand the pharmacodynamics of TS, transcriptomic profiles of drug sensitive and resistant biphasic mesothelioma cell lines were generated. […] Lastly, downregulation of EMT by TS was determined in a cohort of TS treated mesothelioma surgical explants. In summary, PRX3 is a clinically actionable drug target, inhibition of which correlates with EMT modulation.
# [7] = test system: BAP1; assay: BAP1 protein expression by western blot; format: cell-based, human; settings: TS 4 μM; LP9, HM, MI, Pet-Gar cell lines
# Experimental: as §2
# [8] = Preclinical animal studies, tolerability; format: in vivo
# Excerpt: (§3) RSO-021 is a PRX3 inhibitor that inactivates PRX3 through direct covalent adduction of active site cysteine residues, in turn, inducing oxidative stress to levels incompatible with tumor cell survival.
# [9] = test system: human biphasic mesothelioma cell lines; assay: RNA-Seq / RT-qPCR gene expression in mesothelioma cells treated with TS; format: cell-based
# Experimental: Described herein are methods to evaluate changes in gene expression in malignant mesothelioma cells (H-meso cell line) treated with thiostrepton (HM-TS) for 16 hrs and compare to HM-TSR (TS_tolerant cells) grown in the presence of […] TS for several weeks. Biological triplicates were generated, RNA extracted, and RNA integrity evaluated. Cell lysates and cDNA were evaluated for known gene changes by RT-qPCR prior to library builds. Libraries were generated using the SMARTer® Stranded RNA-Seq Kit HT from Takara, pooled and analyzed on the Illumina HiSeq 1500 using a rapid run dual lane SE sequencing flow cell. Each library yielded an average of […] mapped reads.
# Spatial multiregional sampling of adjacent, intra-tumour E (7) vs S (12) regions from 7 patients with bi-phasic mesothelioma was followed by whole exome, transcriptome and 100-plex immunofluorescence analysis (employing cytokeratin-based cell segmentation). Machine learning (random forests) was employed to infer E to S evolutionary trajectories at the genomic, transcriptomic and protein levels. Biphasic human mesothelioma cells were treated with the PRX3 inhibitor RSO-021 (thiostrepton) and gene-expression changes were evaluated by RT-qPCR.
# E and S transition requires Mitochondrial peroxiredoxin 3 (PRX3). […] EMT, hypoxia and glycolysis associated transcription were reduced in RSO-021 treated cells (FIG. 4B). […] Further, MAPK13 (p38) expression is increased in TS treated cells (FIG. 4F). p38 negatively regulates TEAD signaling while TEAD promotes EMT and tumorigenesis. […] TGFb is a master regulator of EMT. VGLL4 inhibits TEAD transcription (FIG. 4H). […] Mesothelin (MSLN) is exclusively expressed in epithelioid MM (FIG. 5A). TS resistant cells increase MSLN expression, indicating a switch to an epithelioid phenotype. EMT is a primary driver in the Epithelioid to sarcomatoid transition (FIG. 5B).
# [10] = test system: mitochondrial PRX3; assay: Preclinical PRX3 inhibition in transformed cells; format: cell-based
# Excerpt: as §3
smiles,measurement,setting,value
"CCOC(=O)c1ccc(NC2CCCCC2)c(N)c1 [Fer-1, Ferrostatin]",effect on PRX3 crosslinking by TS or TS+ER,"[1]; cells treated +/- Fer-1, FIG. 11C",does not alter
same,effect on TS/ER cytotoxic synergy,[2]; 48 hours,does not block
same,effect on ER cytotoxicity,"[2]; 48 hours, FIG. 11A",blocks
"CCOc1ccccc1-n1c(C(C)N2CCN(C(=O)COc3ccc(Cl)cc3)CC2)nc2ccccc2c1=O (stereo not shown) [Erastin, erastin]",effect on PRX3 crosslinking by TS,"[1]; HM cells, TS 1 μM, erastin 2.5 μM, 24 hours",potentiates
same,sensitivity of TS-resistant cells to TS,[3],re-sensitized
same,effect on ROS generation by TS,[4],potentiates
"C=C(NC(=O)C(=C)NC(=O)c1csc(C2=N[C@@H]3c4csc(n4)[C@H]4NC(=O)c5csc(n5)[C@H]([C@](C)(O)[C@@H](C)O)NC(=O)[C@H]5CSC(=N5)/C(=C/C)NC(=O)[C@H]([C@@H](C)O)NC(=O)c5csc(n5)[C@]3(CC2)NC(=O)[C@H](C)NC(=O)C(=C)NC(=O)[C@H](C)NC(=O)[C@H]([C@@H](C)CC)N[C@@H]2C=Cc3c([C@H](C)O)cc(nc3[C@H]2O)C(=O)O[C@@H]4C)n1)C(N)=O [TS, Thiostrepton]","cytokine levels including Resistin, IL-8 and IL-6",[5],significant changes
same,epithelial mesenchymal transition genes,[6],downregulated
same,BAP1 protein expression,[7],does not alter
same,PRX3 crosslinking,"[1]; SLC7A11 KD samples, FIG. 12C",increased
same,PRX3 crosslinking by TS,[1]; cells cultured in cystine free (−) media,increased
same,modified PRX3 (PRX3-TS),[1]; reducing SDS-PAGE and western blotting,dose-dependent irreversible increase
same,tolerability,[8],well-tolerated
same,TS activity in relation to BAP1 expression,"[2]; BAP1 siRNA vs scramble, TS 48 hours",independent of BAP1 expression
same,TS activity on knockdown of SLC7A11,"[2]; HM cells, SLC7A11 siRNA",potentiates
same,"EMT, hypoxia and glycolysis associated transcription","[9]; GSEA, treated vs control cells, FIG. 4B",reduced
same,VISTA expression,"[9]; RSO-021 treated cells, FIG. 4D",upregulated
same,MAPK13 (p38) expression,"[9]; TS treated cells, FIG. 4F",increased
same,TGFb1 and TGFb2 expression,"[9]; TS treated cells, FIG. 4G",downregulated
same,"Additional TEAD targets EGFR, DKK1, WNT5B, SLC7A5, and WNT5A","[9]; TS treatment, FIG. 4I",downregulated
same,"TEAD target genes, TGF-β and EMT associated genes including CDH2","[9]; biphasic mesothelioma cells, FIG. 4A",downregulated
same,mesothelin (MSLN) expression,"[9]; biphasic mesothelioma cells, FIG. 4A/4D",upregulated
same,ROS response and apoptosis signaling,[9]; differential transcriptomic analysis,upregulation
same,"expression of mesothelioma specific EMT genes Col5A, mesothelin, and VISTA",[9]; transcriptomic profiles,altered expression
same,selectivity of mitochondrial PRX3 inhibition,[10],selectively inhibits
